According to ChEMBL document CHEMBL1201862, “PubChem BioAssay data set” (2004):
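Test compounds were applied to cells in 96-well plates for 48 hours at 5 doses. Here, GI50 denotes the concentration required for 50% inhibition of growth.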 Activity calls are given as the source filed them. Rule as the data show it: active = GI50 up to about 1.1 µM and inactive = higher.

Key:
Assay in all cases: NCI-60 cell line screen, 48 h
ACHN = system: ACHN
BT-549 = system: BT-549
CCRF-CEM = system: CCRF-CEM
DU-145 = system: DU-145
EKVX = system: EKVX
HCC 2998 = system: HCC 2998
HL-60 = system: HL-60
Hs-578T = system: Hs-578T
IGROV-1 = system: IGROV-1
LOX IMVI = system: LOX IMVI
MCF7 = system: MCF7
MDA-MB-231 = system: MDA-MB-231
NCI-H226 = system: NCI-H226
OVCAR-3 = system: OVCAR-3
RXF 393 = system: RXF 393
SK-MEL-2 = system: SK-MEL-2
SK-MEL-5 = system: SK-MEL-5
SN12C = system: SN12C
SNB-75 = system: SNB-75
UACC-257 = system: UACC-257

Row | SMILES | GI50 (ACHN) | GI50 (BT-549) | GI50 (CCRF-CEM) | GI50 (DU-145) | GI50 (EKVX) | GI50 (HCC 2998) | GI50 (HL-60) | GI50 (Hs-578T) | GI50 (IGROV-1) | GI50 (LOX IMVI) | GI50 (MCF7) | GI50 (MDA-MB-231) | GI50 (NCI-H226) | GI50 (OVCAR-3) | GI50 (RXF 393) | GI50 (SK-MEL-2) | GI50 (SK-MEL-5) | GI50 (SN12C) | GI50 (SNB-75) | GI50 (UACC-257)
1 | O=C(/C=C(O)/C(=C/C(=O)c1ccccc1)NN=C(c1ccccc1)c1ccccc1)c1ccccc1 | 38.3 µM (inactive) | 31.2 µM (inactive) | 3.3 µM (inactive) | 45.2 µM (inactive) | > 100 µM (inactive) | 20.6 µM (inactive) | 1.57 µM (inactive) | 29.2 µM (inactive) | 36.9 µM (inactive) | 38.3 µM (inactive) | 34.4 µM (inactive) | 49.7 µM (inactive) | 24.9 µM (inactive) | 18.3 µM (inactive) | 41 µM (inactive) | 25.8 µM (inactive) | 18.7 µM (inactive) | 30.2 µM (inactive) | 49.7 µM (inactive) | 26.9 µM (inactive)
2 | COc1cc(C2c3cc4c(cc3OC(NNC(N)=S)C2C)OCO4)cc(OC)c1OC (stereo not given) | 0.989 µM (active) | 0.804 µM (active) | 0.244 µM (active) | 4.17 µM (inactive) | 22.5 µM (inactive) | 0.906 µM (active) | 0.165 µM (active) | 0.406 µM (active) | 0.441 µM (active) | 0.412 µM (active) | 0.457 µM (active) | 0.4 µM (active) | 0.721 µM (active) | 0.349 µM (active) | 0.279 µM (active) | 25.6 µM (inactive) | 0.269 µM (active) | 1.03 µM (active) | 71.3 µM (inactive) | 1.93 µM (inactive)
3 | CC(=O)C1=C(C)N2C(=NC3=C(CCc4ccccc43)C2c2cccc(Br)c2)S1 (stereo not given) | > 100 µM (inactive) | > 100 µM (inactive) | 69.7 µM (inactive) | > 100 µM (inactive) | 11.4 µM (inactive) | 72.9 µM (inactive) | 25.8 µM (inactive) | 67.1 µM (inactive) | 48.2 µM (inactive) | 76.4 µM (inactive) | > 100 µM (inactive) | > 100 µM (inactive) | 79.6 µM (inactive) | 93.1 µM (inactive) | > 100 µM (inactive) | > 100 µM (inactive) | 41.3 µM (inactive) | > 100 µM (inactive) | > 100 µM (inactive) | 84.1 µM (inactive)
4 | COC(=O)/C=C1\C(=O)N(C(C)=O)c2ccccc21 | 6.82 µM (inactive) | 3.47 µM (inactive) | 2.97 µM (inactive) | 9.86 µM (inactive) | 12.3 µM (inactive) | 15.4 µM (inactive) | 2.03 µM (inactive) | 4.17 µM (inactive) | 7.87 µM (inactive) | 3.91 µM (inactive) | 3.64 µM (inactive) | 7.6 µM (inactive) | 12.4 µM (inactive) | 7.67 µM (inactive) | 6.04 µM (inactive) | 16.9 µM (inactive) | 8.73 µM (inactive) | 6.22 µM (inactive) | 12.5 µM (inactive) | 7.38 µM (inactive)
5 | O=c1[nH]nc(Cc2ccccc2)n1/N=C\c1ccccc1 | > 100 µM (inactive) | > 100 µM (inactive) | > 100 µM (inactive) | > 100 µM (inactive) | > 100 µM (inactive) | > 100 µM (inactive) | > 100 µM (inactive) | 76.2 µM (inactive) | 84.7 µM (inactive) | > 100 µM (inactive) | > 100 µM (inactive) | > 100 µM (inactive) | > 100 µM (inactive) | > 100 µM (inactive) | 24.6 µM (inactive) | 31.2 µM (inactive) | > 100 µM (inactive) | > 100 µM (inactive) | 32.3 µM (inactive) | > 100 µM (inactive)
